Bridge positions count the residues as written; N and C are the ends. Peptide text beside a SMILES is read from it.
Assay: in vivo
Conditions: dog, iv, 0.2 mg
Description: The IV dosage was 0.2 mg per dog which is similar to the therapeutic dosage in humans. The oral dosage was 20 mg, and was selected by assuming a BA of about 1%. The concentration of both terlipressin and the active metabolite lysine vasopressin are shown as a function of time. The pharmacokinetic parameters of the active metabolite lysine-vasopressin were determined as well as terlipressin. Each Glypressin ampule contains 1 mg terlipressin acetate, which is equivalent to 0.85 mg terlipressin base. All doses in this study are expressed on the basis of terlipressin base.
All animals were fasted for at least 12 hours prior to dosing and through the first 4 hours of blood sample collection.
In the oral terlipressin capsule treatments, in order to acidify the stomach of the dog, approximately 30 minutes prior to dosing each animal received a single subcutaneous (SC) injection of pentagastrin (0.12 mg/mL) at a dose level of 0.006 mg/kg and a dose volume of 0.05 mL/kg. The same dogs can be used for more than one treatment, with a wash-out period of at least 1 week.
Blood was withdrawn at pre-determined times as follows:

AUC(0-inf): 9.14 ng·h/mL | AUC(0-t): 9.13 ng·h/mL | Cmax: 59.1 ng/mL | half-life: 13.9 ± 1.32 min
Structure (SMILES): NCCCC[C@H](NC(=O)[C@@H]1CCCN1C(=O)[C@@H]1CSSC[C@H](NC(=O)CNC(=O)CNC(=O)CN)C(=O)N[C@@H](Cc2ccc(O)cc2)C(=O)N[C@@H](Cc2ccccc2)C(=O)N[C@@H](CCC(N)=O)C(=O)N[C@@H](CC(N)=O)C(=O)N1)C(=O)NCC(N)=O [IV terlipressin, Terlipressin] (H-GGGCYFQNCPKG-NH2; disulfide 4-9)

Source: patent US10993984B2, “Terlipressin compositions and their methods of use” (Chiasma, Inc., priority 2016, dated 2021)
